Data published in patent publication US20060116407A1, “Amide derivatives” (priority 2004, published 2006).

What was measured:
HER-2 = biological target: T1, HER-2 (Homo sapiens, UniProt P04626); assay: Inhibition of HER-2 phosphorylation in Calu-3 tumor cell line; assay type: cell-based; settings: Calu-3 cells, compound 1 μM, 16 h, pY 1248 in HER-2, percentage of DMSO control; for inhibition at 1 µM: read-out: Percent inhibition of HER2-phosphorylation (compound concentration 1 μM)
T1 construct: endogenous in cells; host or cells: Calu-3 (ATCC HTB-55)
Experimental: Inhibition of HER-2 Phosphorylation in Calu-3 Tumor Cell Line
2×10^5 Calu-3 (ATTC HTB-55) cells per well were plated in a 12-well plate. After 4 days cells were starved for 16 h in Dulbecco's Modified Eagle Medium (DMEM)/0.5% Fetal Calf Serum (FCS)/1% Glutamine. During this 16 h period cells were incubated with a solution of the test compound in dimethylsulfoxide(DMSO), so that the final concentration of the compound is 1 μM and the final volume of DMSO is 0.5%. Afterwards cells were lysed in lyses buffer containing 1% Triton®X-100, 10% Glycerol, 1 mM Ethylene glycol-bis(2-aminoethylether)-N,N,N′,N′-tetraacetic acid (EGTA), 1.5 mM MgCl2, 150 mM NaCl, 50 mM 4-(2-hydroxyethyl)-1-piperazineethanesulfonic acid (HEPES) buffer pH 7.5, 1 mM Phenylmethylsulfonyl fluoride (PMSF), 10 ∥g/mL Aprotinin and […] Orthovanadate. Cell lysates were analyzed on a Sodium Dodecyl Sulfate Polyacrylamide Gel Electrophoresis (SDS PAGE) and after transfer to a nitrocellulose membrane detected with an antibody specifically recognizing the pY 1248 in HER-2. Inhibition of HER-2 phosphorylation is calculated as percentage of the control, which is treated with DMSO only.

HEK293 cells = assay: Viability assay of HEK293 cells (CellTiter-Glo); assay type: cell-based; settings: Homo sapiens, 168 h, 7 days, 3 μM to 0.00015 μM, luminescence
Experimental: Viability Assay of HEK293 Cells
A viability assay was performed using the CellTiter-Glo™ Luminescent Cell Viability Assay (see Promega Corporation's Technical Publication No. 288, pp. 1-11 [revised 2.04] which is hereby incorporated by reference in its entirety). This assay is a homogeneous method of determining the number of viable cells in culture based on quantitation of the ATP present, which signals the presence of metabolically active cells. The assay is designed for use with multiwell formats, making it ideal for automated high-throughput screening (HTS), cell proliferation and cytotoxicity assays. The homogeneous assay procedure involves adding a single reagent (containing luciferase, luciferan substrate, and buffer) directly to cells cultured in serum-supplemented medium. Cell washing, removal of medium and multiple pipetting steps are not required. The system detects as few as 15 cells/well in a 384-well format in 10 minutes after adding reagent and mixing.
The homogeneous “add-mix-measure” format results in cell lysis and generation of a luminescent signal proportional to the amount of ATP present. The amount of ATP is directly proportional to the number of cells present in culture. The above-referenced assay generates a “glow-type” luminescent signal, produced by the luciferase reaction, which has a half-life generally greater than five hours, depending on cell type and medium used. The extended half-life eliminates the need to use reagent injectors and provides flexibility for continuous or batch mode processing of multiple plates. The unique homogeneous format avoids errors that may be introduced by other ATP measurement methods that require multiple steps.
HEK293 cells (human embryonic kidney cell line transformed by Adenovirus 5 fragments, ATCC-No. CRL 1573) were cultivated in Dulbecco's Modified Eagle Medium (DMEM) (1×) liquid (high glucose) (which includes L-Alanyl-L-Glutamine [a stabilized a form of L-Glutamine], 4500 mg/L glucose, and 110 mg/L sodium pyruvate) from Invitrogen Corporation (Invitrogen Catalog Number 31966-021 [now 10569-010] which is hereby incorporated by reference in its entirety), 5% Fetal Calf Serum (FCS, Sigma Cat-No. F4135 (FBS) which is hereby incorporated by reference in its entirety), and 100 Units/ml penicillin/100 μg/ml streptomycin(=Pen/Strep from Invitrogen Cat. No. 15140 which is hereby incorporated by reference in its entirety). For the assay the cells were seeded in 384 well plates, 5000 cells per well, in the same medium. The next day the test compounds were added in various concentrations ranging from 3 μM to 0.00015 μM (10 concentrations, 1:3 diluted). After 7 days the above viability assay was performed in accordance with the following steps: • Step 1: The cell-plate was equilibrated to room temperature for approximately 30 minutes and than the assay reagent was added. • Step 2: The contents were carefully mixed for 15 minutes to induce cell lysis. • Step 3: After 45 minutes the luminescent signal was measured in Victor 2, (scanning multiwell spectrophotometer, Wallac). Details: 1st Day: • Medium: Dulbecco's Modified Eagle Medium (DMEM) (1×) liquid (high glucose) (which includes L-Alanyl-L-Glutamine [a stabilized a form/source of L-Glutamine], 4500 mg/L glucose, and 110 mg/L sodium pyruvate) from Invitrogen Corporation (Invitrogen Catalog Number 31966-021 [now 10569-010]), 5% Fetal Calf Serum (FCS, Sigma Cat-No. F4135 (FBS)), and Pen/Strep (Invitrogen Cat. No. 15140). • HEK293 (ATCC-No. CRL 1573): 5000 cells in 60 μl per well of 384 well plate. (Greiner 781098, white plates) • Incubate 24 h at 37° C., 5% CO2 2nd Day: Induction (Substance Testing):
In general the dilution steeps are 1:3 a) Add 8 μl of 10 mM stock solution of compound to 72 μl DMSO b) dilute 9×1:3 (always 30 μl to 60 μl DMSO) in this DMSO dilution row (results in 10 wells with concentrations from 1000 μM to 0.06 μM) c) dilute each concentration 1: 4.8 (10 μl compound dilution to 38 μl medium) […]

T1 sequence (P04626 23-1255): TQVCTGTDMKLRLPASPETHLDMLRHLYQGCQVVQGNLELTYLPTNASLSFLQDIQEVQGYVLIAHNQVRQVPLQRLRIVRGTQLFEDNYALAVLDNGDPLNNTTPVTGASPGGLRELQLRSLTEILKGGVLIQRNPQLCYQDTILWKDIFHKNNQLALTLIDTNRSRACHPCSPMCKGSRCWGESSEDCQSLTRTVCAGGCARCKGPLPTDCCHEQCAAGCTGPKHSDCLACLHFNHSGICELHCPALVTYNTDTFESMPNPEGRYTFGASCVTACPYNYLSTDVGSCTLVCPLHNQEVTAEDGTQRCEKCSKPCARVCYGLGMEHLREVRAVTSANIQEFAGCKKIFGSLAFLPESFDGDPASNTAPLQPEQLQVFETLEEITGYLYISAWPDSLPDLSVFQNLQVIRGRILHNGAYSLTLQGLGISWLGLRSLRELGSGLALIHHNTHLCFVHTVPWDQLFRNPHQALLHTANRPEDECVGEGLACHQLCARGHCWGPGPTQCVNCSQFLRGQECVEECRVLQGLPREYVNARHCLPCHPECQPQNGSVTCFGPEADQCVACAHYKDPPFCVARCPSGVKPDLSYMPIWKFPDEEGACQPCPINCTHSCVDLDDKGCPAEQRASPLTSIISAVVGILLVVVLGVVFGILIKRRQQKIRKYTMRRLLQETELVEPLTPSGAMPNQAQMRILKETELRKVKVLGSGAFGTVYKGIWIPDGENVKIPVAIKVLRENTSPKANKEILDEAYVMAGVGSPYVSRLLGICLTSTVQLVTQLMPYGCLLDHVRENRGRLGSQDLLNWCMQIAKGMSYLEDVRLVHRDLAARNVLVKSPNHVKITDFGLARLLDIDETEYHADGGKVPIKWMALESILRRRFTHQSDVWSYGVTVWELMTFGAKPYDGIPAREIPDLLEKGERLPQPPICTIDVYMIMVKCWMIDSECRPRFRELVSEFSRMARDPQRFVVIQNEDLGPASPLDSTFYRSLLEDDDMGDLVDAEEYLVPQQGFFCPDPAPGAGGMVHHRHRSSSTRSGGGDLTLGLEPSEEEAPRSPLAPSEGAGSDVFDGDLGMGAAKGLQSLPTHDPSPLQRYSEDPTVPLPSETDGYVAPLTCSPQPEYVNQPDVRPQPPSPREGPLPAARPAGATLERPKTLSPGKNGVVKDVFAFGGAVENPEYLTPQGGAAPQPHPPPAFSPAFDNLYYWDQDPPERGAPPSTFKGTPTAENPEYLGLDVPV

inhibition at 1 µM (HER-2) | Percent inhibition of HER2-phosphorylation (compound concentration 1 μM) (HER-2) | Compound | IC50 (HEK293 cells)
52% | – | FC(F)(F)c1ccc(C=Cc2nc(COc3ccc(CCCCn4ccnn4)cc3)co2)cc1 [reference compound, 1-[4-(4-{2-[2-(4-Trifluoromethyl-phenyl)-vinyl]-oxazol-4-ylmethoxy}-phenyl)-butyl]-1H-[1,2,3]triazole, reference compound] | –
– | 69% | O=C(Nc1ccc(SC(F)(F)F)cc1)c1coc(COc2ccc(CCCCn3ccnn3)cc2)n1 [Example 11, 2-[4-(4-[1,2,3]Triazol-1-yl-butyl)-phenoxymethyl]-oxazole-4-carboxylic acid (4-trifluoro-methylsulfanyl-phenyl)-amide] | –
> 80% | – | CC(C)(C)c1ccc(C(=O)Nc2nc(COc3ccc(CCCCn4ccnn4)cc3)cs2)cc1 [Example 52-21, 4-tert-Butyl-N-{4-[4-(4-[1,2,3]triazol-1-yl-butyl)-phenoxymethyl]-thiazol-2-yl}-benzamide] | 5 to 500 nM
> 80% | – | O=C(Nc1ccc(C(F)(F)F)cc1)c1csc(COc2ccc(CCCCn3ccnn3)cc2)n1 [Example 41, 2-[4-(4-[1,2,3]Triazol-1-yl-butyl)-phenoxymethyl]-thiazole-4-carboxylic acid (4-trifluoromethyl-phenyl)-amide] | 5 to 500 nM
> 80% | – | O=C(Nc1ccc(C(F)(F)F)cc1)c1coc(COc2ccc(CCCCn3ccnn3)cc2)n1 [Example 13, 2-[4-(4-[1,2,3]Triazol-1-yl-butyl)-phenoxymethyl]-oxazole-4-carboxylic acid (4-trifluoromethyl-phenyl)-amide] | 5 to 500 nM
– | 75% | O=C(Nc1ccc(OC(F)(F)F)cc1)c1coc(COc2ccc(CCCCn3ccnn3)cc2)n1 [Example 10, 2-[4-(4-[1,2,3]Triazol-1-yl-butyl)-phenoxymethyl]-oxazole-4-carboxylic acid (4-trifluoro-methoxy-phenyl)-amide] | –
70 to 80% | – | O=C(Nc1ccc(S(F)(F)(F)(F)F)cc1)c1nc(COc2ccc(CCCCn3ccnn3)cc2)cs1 [Example 40, 4-[4-(4-[1,2,3]Triazol-1-yl-butyl)-phenoxymethyl]-thiazole-2-carboxylic acid (4-pentafluorosulfanyl-phenyl)-amide] | 5 to 500 nM
70 to 80% | – | Cc1ccc(NC(=O)c2coc(COc3ccc(CCCCn4ccnn4)cc3)n2)cc1F [Example 36, 2-[4-(4-[1,2,3]Triazol-1-yl-butyl)-phenoxymethyl]-oxazole-4-carboxylic acid (3-fluoro-4-methyl-phenyl)-amide] | 5 to 500 nM
> 80% | – | O=C(Nc1ccc(OC(F)(F)F)cc1)c1csc(COc2ccc(CCCCn3ccnn3)cc2)n1 [Example 43, 2-[4-(4-[1,2,3]Triazol-1-yl-butyl)-phenoxymethyl]-thiazole-4-carboxylic acid (4-trifluoromethoxy-phenyl)-amide] | 500 to 3000 nM
87% | – | O=C(Nc1ccc(OC(F)(F)F)cc1)c1nc(COc2ccc(CCCCn3ccnn3)cc2)cs1 [Example 39, 4-[4-(4-[1,2,3]Triazol-1-yl-butyl)-phenoxymethyl]-thiazole-2-carboxylic acid (4-trifluoromethoxy-phenyl)-amide] | 5 to 500 nM
55 to 70% | – | O=C(Nc1ccc(OC(F)F)cc1)c1coc(COc2ccc(CCCCn3ccnn3)cc2)n1 [Example 22, 2-[4-(4-[1,2,3]Triazol-1-yl-butyl)-phenoxymethyl]-oxazole-4-carboxylic acid (4-difluoromethoxy-phenyl)-amide] | –
70 to 80% | – | COc1ccc(NC(=O)c2coc(COc3ccc(CCCCn4ccnn4)cc3)n2)cc1 [Example 37, 2-[4-(4-[1,2,3]Triazol-1-yl-butyl)-phenoxymethyl]-oxazole-4-carboxylic acid (4-methoxy-phenyl)-amide] | –

More lines, now with the values behind:

Compound | inhibition at 1 µM (HER-2) | Percent inhibition of HER2-phosphorylation (compound concentration 1 μM) (HER-2) | IC50 (HEK293 cells)
CN(C(=O)c1coc(COc2ccc(CCCCn3ccnn3)cc2)n1)c1ccc(Cl)cc1 [Example 2, 2-[4-(4-[1,2,3]Triazol-1-yl-butyl)-phenoxymethyl]-oxazole-4-carboxylic acid (4-chloro-phenyl)-methyl-amide] | 55 to 70% | – | –
O=C(Nc1nc(COc2ccc(CCCCn3ccnn3)cc2)cs1)c1cccc(F)c1 [Example 52-25, 3-Fluoro-N-{4-[4-(4-[1,2,3]triazol-1-yl-butyl)-phenoxymethyl]-thiazol-2-yl}-benzamide] | – | – | 5 to 500 nM
Cc1cc(OCc2nc(C(=O)Nc3cccc(Cl)c3)cs2)ccc1CCCCn1ccnn1 [Example 51, 2-[3-Methyl-4-(4-[1,2,3]triazol-1-yl-butyl)-phenoxymethyl]-thiazole-4-carboxylic acid (3-chloro-phenyl)-amide] | – | – | 5 to 500 nM
Cc1cc(C(=O)Nc2nc(COc3ccc(CCCCn4ccnn4)cc3)cs2)ccc1F [Example 52-26, 4-Fluoro-3-methyl-N-{4-[4-(4-[1,2,3]triazol-1-yl-butyl)-phenoxymethyl]-thiazol-2-yl}-benzamide] | – | – | 5 to 500 nM
O=C(Nc1ccc(Cl)cc1)c1coc(COc2ccc(CCCCn3ccnn3)cc2)n1 [Example 6, 2-[4-(4-[1,2,3]Triazol-1-yl-butyl)-phenoxymethyl]-oxazole-4-carboxylic acid (4-chloro-phenyl)-amide] | – | – | 500 to 3000 nM
O=C(Nc1cc(F)cc(F)c1)c1coc(COc2ccc(CCCCn3ccnn3)cc2)n1 [Example 5, 2-[4-(4-[1,2,3]Triazol-1-yl-butyl)-phenoxymethyl]-oxazole-4-carboxylic acid (3,5-difluoro-phenyl)-amide] | – | – | 5 to 500 nM
Cc1ccc(NC(=O)c2coc(COc3ccc(CCCCn4ccnn4)cc3)n2)cc1 [Example 28, 2-[4-(4-[1,2,3]Triazol-1-yl-butyl)-phenoxymethyl]-oxazole-4-carboxylic acid p-tolylamide] | – | – | 500 to 3000 nM
CN(C(=O)c1coc(COc2ccc(CCCCn3ccnn3)cc2)n1)c1ccc(OC(F)(F)F)cc1 [Example 30, 2-[4-(4-[1,2,3]Triazol-1-yl-butyl)-phenoxymethyl]-oxazole-4-carboxylic acid methyl-(4-trifluoromethoxy-phenyl)-amide] | – | – | 5 to 500 nM
Cc1cc(OCc2nc(C(=O)Nc3cccc(Cl)c3)co2)ccc1CCCCn1ccnn1 [Example 48, 2-[3-Methyl-4-(4-[1,2,3]triazol-1-yl-butyl)-phenoxymethyl]-oxazole-4-carboxylic acid (3-chloro-phenyl)-amide] | – | – | 5 to 500 nM
